Assay results reported in patent US20020137929A1, “1 - (3-heterocyclylphenyl) isothiourea, -isourea, -guanidine and -amidine herbicidal agents” (Intellectual Property Department, BASF Aktiengesellschaft, priority 1998, published 2002).

Assays:
[1] = test system: ORYSAT (Rice, Tebonnet); test: Postemergence herbicidal evaluation; assay type: in vivo, Oryza sativa, (L.) Tebonnet
Procedure, shortened: (§1)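 First, seedlings were raised for around two weeks. Next, test material in 50/50 acetone/water containing 0.5% TWEEN 20 was sprayed through a nozzle at 40 psi, equivalent to about 0.0156–0.500 kg/ha. Finally, after 4–5 weeks in the greenhouse, plants were rated 0–9.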

[2] = test system: GALAP (Galium); test: Postemergence herbicidal evaluation; assay type: in vivo, Galium aparine
Procedure, shortened: as §1

[3] = test system: GALAP (Galium); test: Preemergence herbicidal evaluation; assay type: in vivo, Galium aparine; conditions: rated 4-5 weeks after treatment
Procedure, shortened: (§2)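 Sown cups got a single aqueous acetone spray of test compound (roughly 0.0156–0.500 kg/ha) before seedlings emerged. Evaluation, 4–5 weeks on, used a 0–9 visual scale covering plant stand, vigor, size, malformation, chlorosis and general appearance compared with controls.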

[4] = test system: CHEAL (Lambsquarters, Common); test: Postemergence herbicidal evaluation; assay type: in vivo, Chenopodium album
Procedure, shortened: as §1

[5] = test system: CYPSE (Flatsedge); test: Postemergence weed control under flooded paddy conditions; assay type: in vivo, Cyperus serotinus; conditions: postemergence weeds, 3-4 weeks after treatment
Procedure, shortened: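 Flood-water application, about 0.0313–0.500 kg/ha a.i. in aqueous/acetone 50/50 v/v; water depth 1.5–3 cm throughout. Weeds 3–5 cm, rice 1.5–2.5 leaf. Greenhouse; 0–9 visual rating vs control at 3–4 wk.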

[6] = test system: CASOB (Sicklepod); test: Postemergence herbicidal evaluation; assay type: in vivo, Cassia obtusifolia
Procedure, shortened: as §1

[7] = test system: ECHCG (Barnyardgrass); test: Postemergence herbicidal evaluation; assay type: in vivo, Echinochloa crus-galli
Procedure, shortened: as §1

[8] = test system: CASOB (Sicklepod); test: Preemergence herbicidal evaluation; assay type: in vivo, Cassia obtusifolia; conditions: rated 4-5 weeks after treatment
Procedure, shortened: as §2

[9] = test system: CYPIR (Rice Flatsedge); test: Preemergence weed control under flooded paddy conditions; assay type: in vivo, Cyperus iria; conditions: rated 3-4 weeks after treatment
Procedure, shortened: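 First, seeds or propagules go into the top 0.5 cm of silt loam; next, water is held 1.5 to 3 cm over the soil; then compound (50/50 acetone/water) is pipetted into it at about 0.0313 to 0.500 kg/ha; finally plants are rated visually 0-9 after three to four weeks.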

[10] = test system: ZEAMX (Corn, Field); test: Preemergence herbicidal evaluation; assay type: in vivo, Zea mays; conditions: rated 4-5 weeks after treatment
Procedure, shortened: as §2

[11] = test system: AMBEL (Ragweed, Common); test: Postemergence herbicidal evaluation; assay type: in vivo, Ambrosia artemisifolia
Procedure, shortened: as §1

[12] = test system: SETVI (Foxtail, Green); test: Postemergence herbicidal evaluation; assay type: in vivo, Setaria viridis
Procedure, shortened: as §1

[13] = test system: SAGPY (Arrowhead (Pygmaea)); test: Preemergence weed control under flooded paddy conditions; assay type: in vivo, Sagittaria pygmaea; conditions: rated 3-4 weeks after treatment
Procedure, shortened: (§3)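 Values are visual 0-9 scores against a control for a preemergence application into paddy flood water at about 0.0313 to 0.500 kg/ha. Greenhouse duration was three to four weeks.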

[14] = test system: GLXMAW (Soybean, Williams); test: Postemergence herbicidal evaluation; assay type: in vivo, Glycine max, (L.) Merr. cv Williams
Procedure, shortened: as §1

[15] = test system: CYPSE (Flatsedge); test: Preemergence weed control under flooded paddy conditions; assay type: in vivo, Cyperus serotinus; conditions: rated 3-4 weeks after treatment
Procedure, shortened: as §3

Question: How did the “Postemergence herbicidal rating ORYSAT” value ([1]; Rate 0.0158 kg/ha) turn out when `COC(=O)CCCN1C(=O)CSC1=Nc1cc(-n2c(=O)cc(C(F)(F)F)n(C)c2=O)c(F)cc1Cl` [Compound 29, Methyl 2-{{2-chloro-5-[3,6-dihydro-3-methyl-2,6-dioxo-4-(trifluoromethyl)-1(2H)-pyrimidinyl]-4-fluorophenyl}imino}-4-oxo-3-thiazolidinebutyrate] was run?
Answer: The value was 1.0.

Question: What about the “Postemergence herbicidal rating ORYSAT” value ([1]; Rate 0.0315 kg/ha) of the same molecule?
Answer: The value was 3.0.

Question: What about the “Postemergence herbicidal rating ORYSAT” value ([1]; Rate 0.0630 kg/ha) of the same molecule?
Answer: The value was 3.5.

Question: And the “Postemergence herbicidal rating GALAP” value ([2]; Rate 0.0158 kg/ha)?
Answer: Its value is 1.0.

Question: And the “Postemergence herbicidal rating GALAP” value ([2]; Rate 0.0315 kg/ha)?
Answer: The value was 1.0.

Question: And the “Postemergence herbicidal rating GALAP” value ([2]; Rate 0.0630 kg/ha)?
Answer: Its value is 7.0.

Question: And the “Preemergence herbicidal rating GALAP” value ([3]; rate 0.0625 kg/ha)?
Answer: The value was 0.0.

Question: And the “Preemergence herbicidal rating GALAP” value ([3]; rate 0.1250 kg/ha)?
Answer: Its value is 0.0.

Question: What about the “Preemergence herbicidal rating GALAP” value ([3]; rate 0.2500 kg/ha) of the same molecule?
Answer: Its value is 0.0.

Question: And the “Postemergence herbicidal rating CHEAL” value ([4]; Rate 0.0158 kg/ha)?
Answer: The value was 1.0.

Question: What about the “Postemergence herbicidal rating CHEAL” value ([4]; Rate 0.0315 kg/ha) of the same molecule?
Answer: The value was 1.0.

Question: What about the “Postemergence herbicidal rating CHEAL” value ([4]; Rate 0.0630 kg/ha) of the same molecule?
Answer: The value was 5.0.

Question: And the “Herbicidal rating CYPSE” value ([5]; rate 0.0313 kg/ha)?
Answer: The value was 0.0.

Question: And the “Herbicidal rating CYPSE” value ([5]; rate 0.0625 kg/ha)?
Answer: The value was 0.0.

Question: What about the “Herbicidal rating CYPSE” value ([5]; rate 0.1250 kg/ha) of the same molecule?
Answer: Its value is 0.0.

Question: What about the “Herbicidal rating CYPSE” value ([5]; rate 0.2500 kg/ha) of the same molecule?
Answer: The value was 0.0.

Question: And the “Postemergence herbicidal rating CASOB” value ([6]; Rate 0.0158 kg/ha)?
Answer: The value was 0.0.

Question: What about the “Postemergence herbicidal rating CASOB” value ([6]; Rate 0.0315 kg/ha) of the same molecule?
Answer: Its value is 0.0.

Question: And the “Postemergence herbicidal rating CASOB” value ([6]; Rate 0.0630 kg/ha)?
Answer: The value was 0.0.

Question: And the “Postemergence herbicidal rating ECHCG” value ([7]; Rate 0.0158 kg/ha)?
Answer: The value was 0.0.

Question: What about the “Postemergence herbicidal rating ECHCG” value ([7]; Rate 0.0315 kg/ha) of the same molecule?
Answer: Its value is 1.0.

Question: And the “Postemergence herbicidal rating ECHCG” value ([7]; Rate 0.0630 kg/ha)?
Answer: Its value is 4.0.

Question: And the “Preemergence herbicidal rating CASOB” value ([8]; rate 0.0625 kg/ha)?
Answer: The value was 0.0.

Question: What about the “Preemergence herbicidal rating CASOB” value ([8]; rate 0.1250 kg/ha) of the same molecule?
Answer: Its value is 0.0.

Question: What about the “Preemergence herbicidal rating CASOB” value ([8]; rate 0.2500 kg/ha) of the same molecule?
Answer: Its value is 0.0.

Question: And the “Herbicidal rating CYPIR” value ([9]; 0.0313 kg/ha)?
Answer: The value was 0.0.

Question: What about the “Herbicidal rating CYPIR” value ([9]; 0.0625 kg/ha) of the same molecule?
Answer: Its value is 0.0.

Question: And the “Herbicidal rating CYPIR” value ([9]; 0.1250 kg/ha)?
Answer: The value was 0.0.

Question: And the “Herbicidal rating CYPIR” value ([9]; 0.2500 kg/ha)?
Answer: Its value is 0.0.

Question: And the “Preemergence herbicidal rating ZEAMX” value ([10]; rate 0.0625 kg/ha)?
Answer: The value was 0.0.

Question: And the “Preemergence herbicidal rating ZEAMX” value ([10]; rate 0.1250 kg/ha)?
Answer: Its value is 0.0.

Question: What about the “Preemergence herbicidal rating ZEAMX” value ([10]; rate 0.2500 kg/ha) of the same molecule?
Answer: Its value is 6.0.

Question: What about the “Postemergence herbicidal rating AMBEL” value ([11]; Rate 0.0158 kg/ha) of the same molecule?
Answer: The value was 1.0.

Question: What about the “Postemergence herbicidal rating AMBEL” value ([11]; Rate 0.0315 kg/ha) of the same molecule?
Answer: Its value is 4.0.

Question: What about the “Postemergence herbicidal rating AMBEL” value ([11]; Rate 0.0630 kg/ha) of the same molecule?
Answer: Its value is 9.0.

Question: And the “Postemergence herbicidal rating SETVI” value ([12]; Rate 0.0158 kg/ha)?
Answer: Its value is 0.0.

Question: And the “Postemergence herbicidal rating SETVI” value ([12]; Rate 0.0315 kg/ha)?
Answer: Its value is 1.0.

Question: What about the “Postemergence herbicidal rating SETVI” value ([12]; Rate 0.0630 kg/ha) of the same molecule?
Answer: Its value is 4.0.

Question: And the “Herbicidal rating SAGPY” value ([13]; 0.0313 kg/ha)?
Answer: The value was 0.0.

Question: And the “Herbicidal rating SAGPY” value ([13]; 0.0625 kg/ha)?
Answer: The value was 0.0.

Question: And the “Herbicidal rating SAGPY” value ([13]; 0.1250 kg/ha)?
Answer: Its value is 0.0.

Question: What about the “Herbicidal rating SAGPY” value ([13]; 0.2500 kg/ha) of the same molecule?
Answer: The value was 0.0.

Question: What about the “Postemergence herbicidal rating GLXMAW” value ([14]; Rate 0.0158 kg/ha) of the same molecule?
Answer: The value was 6.5.

Question: What about the “Postemergence herbicidal rating GLXMAW” value ([14]; Rate 0.0315 kg/ha) of the same molecule?
Answer: The value was 7.5.

Question: What about the “Postemergence herbicidal rating GLXMAW” value ([14]; Rate 0.0630 kg/ha) of the same molecule?
Answer: The value was 8.0.

Question: What about the “Herbicidal rating CYPSE” value ([15]; 0.0313 kg/ha) of the same molecule?
Answer: Its value is 0.0.

Question: What about the “Herbicidal rating CYPSE” value ([15]; 0.0625 kg/ha) of the same molecule?
Answer: The value was 0.0.

Question: And the “Herbicidal rating CYPSE” value ([15]; 0.1250 kg/ha)?
Answer: Its value is 0.0.

Question: What about the “Herbicidal rating CYPSE” value ([15]; 0.2500 kg/ha) of the same molecule?
Answer: Its value is 0.0.
